Consider two molecules from ChEMBL document CHEMBL3727375, “Antiproliferative 1,2,3-thiadiazole compounds” (2007).

Structures are written as SMILES. Active and inactive are the calls of the source. No cut-off for these calls is given here.

In one test the test system is Chorioallantoic membrane. Nature of the test: Antiangiogenic activity in fertilized chicken egg chorioallantoic membrane assessed as inhibition of blood vessel growth at 50 uM incubated for 2 days by dissecting microscopy relative to control. Format: functional, tissue-based. To be noted: Gallus gallus.
Test [1] is described as follows: Induction of apoptosis in rat IEC-18-13 cells assessed as apoptotic cells at 5 uM after 24 hrs by mitosensor dye-based fluorescence microscopy (reference value: 25%). Format: functional.
The subject of the next test is Lewis lung carcinoma. Put plainly: Antitumor activity against mouse LLC allografted in ip dosed mouse assessed as tumor growth inhibition administered daily. Format: functional, organism-based.
The nature of test [2]: Induction of apoptosis in rat IEC-18-13 cells assessed as healthy cells at 5 uM after 24 hrs by mitosensor dye-based fluorescence microscopy (reference value: 75%). Format: functional.

With `NC(=O)c1nnsc1Nc1cccc2ccccc12`, the growth inhibition (GI) with Chorioallantoic membrane is 100%.

For the molecule `NC(=O)c1nnsc1Nc1ccccc1`, the Activity amounted to 78% in test [1] and 22% in test [2]. Also, the TGI entry with Lewis lung carcinoma was “Active”.
